The results in this text go back to patent publication US8183238B2, “Bicyclic and tricyclic compounds as KAT II inhibitors” (priority 2009, dated 2012).

Molecules are shown by their SMILES. Where a name gives a salt, the structure may show the parent alone. Read-outs that look alike come from different tables or passages of the source.

What is called IC50 is the concentration needed to halve the response being measured.

In the assay the target is human KAT II (hKAT II) enzyme (Homo sapiens, UniProt Q8N5Z0). Nature of the assay: KAT II Inhibition Spectra Assay. In kind it is biochemical. To be noted: hKAT II, decrease in OD370, 37° C., 15-20 h, read-out: KATII IC50. Here is the method: Formation of kynurenic acid (KYNA) is indirectly assessed by a decrease in light absorbance at 370 nm (OD370) as the L-kynurenine (KYN) substrate is converted by the human KAT II (hKAT II) enzyme into KYNA. An inhibitor would therefore inhibit the decrease in OD370.
Sequence of human KAT II (hKAT II) enzyme (Q8N5Z0 30-425): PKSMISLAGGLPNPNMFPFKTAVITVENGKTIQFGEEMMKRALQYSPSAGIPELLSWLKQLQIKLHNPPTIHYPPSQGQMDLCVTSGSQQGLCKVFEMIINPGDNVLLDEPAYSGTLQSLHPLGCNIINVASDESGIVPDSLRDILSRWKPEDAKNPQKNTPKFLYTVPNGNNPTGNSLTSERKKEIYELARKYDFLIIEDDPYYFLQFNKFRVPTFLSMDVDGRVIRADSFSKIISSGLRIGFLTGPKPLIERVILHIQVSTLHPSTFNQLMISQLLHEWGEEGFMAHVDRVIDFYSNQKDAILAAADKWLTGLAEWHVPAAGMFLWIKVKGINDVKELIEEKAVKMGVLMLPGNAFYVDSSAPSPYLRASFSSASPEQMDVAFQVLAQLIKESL
The protocol was performed by placing the following reagents into a Costar 384 well black plate (30 μL total assay volume/well): • 10 μL of 3× concentrated compound; • 10 μL of 3× concentrated substrate mix (BGG (Sigma G-5009); 3 mM L-Kynurenine in 150 mM Tris Acetate (Sigma K3750); 3 mM α-ketoglutaric acid in 150 mM Tris Acetate (Sigma K2010); and 210 μM pyridoxal 5-phosphate (PLP) in 150 mM Tris Acetate (Sigma 9255)); and • 10 μL of 3× concentrated enzyme (15 nM enzyme in 150 mM Tris Acetate with 0.3% bovine serum).
Plates were sealed and incubated at 37° C. for 15-20 h before reading OD370 on a SpectraMax Plus plate reader. IC50s were generated by comparing the efficacy of compounds across a concentration range to inhibit a reduction in the OD370 value relative to assay wells with DMSO added in place of concentrated compound.

Regarding `COc1ccc2c(c1)N(O)C(=O)C(N)C2` (centres unmarked) [Example 29], where the note is “Table 5”, the half-maximal inhibitory concentration (IC50) was 10.5 nM. Still for that read-out and setting: the value for `NC1Cc2ccc(C3CC3)cc2N(O)C1=O` (centres unmarked) [Example 30] was 23.7 nM.

As for `N[C@H]1Cc2cc(Cl)cc(F)c2N(O)C1=O` [Example 31], the half-inhibitory concentration (IC50) (Table 5) was 49.7 nM. On the same count and under the same terms, the value for `N[C@H]1Cc2cc(OC(F)(F)F)ccc2N(O)C1=O` [Example 32] was 35.9 nM; that for `N#Cc1cccc2c1N(O)C(=O)C(N)C2` (centres unmarked) [Example 33] was 33 nM. With `N[C@H]1Cc2ccc(OCc3ccccc3)cc2N(O)C1=O` [Example 34], the concentration for half-maximal inhibition (IC50) (Table 5) came to 35.6 nM.

As to `N[C@H]1Cc2cc(Cl)cc(C(F)(F)F)c2N(O)C1=O` [Example 35], the IC50 (Table 5) amounted to 49.2 nM. The same measure, in the same setting: under `N[C@H]1Cc2cccc(F)c2N(O)C1=O` [Example 36] stands 79.3 nM.

As for `N[C@H]1Cc2cccc(OC(F)(F)F)c2N(O)C1=O` [Example 37], the IC50 (Table 5) came to 34.1 nM. Still for that read-out and setting: under `NC1Cc2ccc(-c3cccc(OC(F)(F)F)c3)cc2N(O)C1=O` (centres unmarked) [Example 38, 3-amino-1-hydroxy-7-[3-(trifluoromethoxy)phenyl]-3,4-dihydroquinolin-2(1H)-one, trifluoroacetate salt] stands 133 nM; under `Cc1ccc(-c2ccc3c(c2)N(O)C(=O)C(N)C3)cc1` (centres unmarked) [Example 39, 3-amino-1-hydroxy-7-(4-methylphenyl)-3,4-dihydroquinolin-2(1H)-one, trifluoroacetate salt], 136 nM.

Turning to `NC1Cc2ccc(-c3cccc(F)c3F)cc2N(O)C1=O` (centres unmarked) [Example 40, 3-amino-7-(2,3-difluorophenyl)-1-hydroxy-3,4-dihydroquinolin-2(1H)-one, trifluoroacetate salt], the IC50 (Table 5) stood at 122 nM. `NC1Cc2ccc(-c3ccccc3OC(F)(F)F)cc2N(O)C1=O` (centres unmarked) [Example 41, 3-amino-1-hydroxy-7-[2-(trifluoromethoxy)phenyl]-3,4-dihydroquinolin-2(1H)-one, trifluoroacetate salt]: where the note is “Table 5”, the IC50 is 257 nM.

Take `NC1Cc2ccc(-c3ccccc3)cc2N(O)C1=O` (centres unmarked) [Example 42, 3-amino-1-hydroxy-7-phenyl-3,4-dihydroquinolin-2(1H)-one, trifluoroacetate salt]: where the note is “Table 5”, the IC50 was determined as 101 nM. On the same count and under the same terms, the value for `NC1Cc2ccc(-c3cc(Cl)ccc3Cl)cc2N(O)C1=O` (centres unmarked) [Example 43, 3-amino-7-(2,5-dichlorophenyl)-1-hydroxy-3,4-dihydroquinolin-2(1H)-one, trifluoroacetate salt] was 133 nM; that for `NC1Cc2ccc(-c3ccc(F)c(F)c3)cc2N(O)C1=O` (centres unmarked) [Example 44, 3-amino-7-(3,4-difluorophenyl)-1-hydroxy-3,4-dihydroquinolin-2(1H)-one, trifluoroacetate salt] was 118 nM. Turning to `NC1Cc2ccc(-c3ccccc3Cl)cc2N(O)C1=O` (centres unmarked) [Example 45, 3-amino-7-(2-chlorophenyl)-1-hydroxy-3,4-dihydroquinolin-2(1H)-one, trifluoroacetate salt], the IC50 (Table 5) worked out at 235 nM. In the case of `NC1Cc2ccc(-c3cccc(C(F)(F)F)c3)cc2N(O)C1=O` (centres unmarked) [Example 46, 3-amino-1-hydroxy-7-[3-(trifluoromethyl)phenyl]-3,4-dihydroquinolin-2(1H)-one, trifluoroacetate salt], the IC50 (Table 5) worked out at 128 nM. On the same count and under the same terms, the value for `Cc1cccc(-c2ccc3c(c2)N(O)C(=O)C(N)C3)c1C` (centres unmarked) [Example 47, 3-amino-7-(2,3-dimethylphenyl)-1-hydroxy-3,4-dihydroquinolin-2(1H)-one, trifluoroacetate salt] was 118 nM; that for `CN(C)c1ccc(-c2ccc3c(c2)N(O)C(=O)C(N)C3)cn1` (centres unmarked) [Example 48, 3-amino-7-[6-(dimethylamino)pyridin-3-yl]-1-hydroxy-3,4-dihydroquinolin-2(1H)-one, trifluoroacetate salt] was 523 nM; that for `COc1ccc(-c2ccc3c(c2)N(O)C(=O)C(N)C3)cc1F` (centres unmarked) [Example 49, 3-amino-7-(3-fluoro-4-methoxyphenyl)-1-hydroxy-3,4-dihydroquinolin-2(1H)-one, trifluoroacetate salt] was 105 nM. Still for that read-out and setting: the value for `NC1Cc2ccc(-c3cc(F)ccc3F)cc2N(O)C1=O` (centres unmarked) [Example 50, 3-amino-7-(2,5-difluorophenyl)-1-hydroxy-3,4-dihydroquinolin-2(1H)-one, trifluoroacetate salt] was 103 nM; that for `NC1Cc2ccc(-c3ccco3)cc2N(O)C1=O` (centres unmarked) [Example 51, 3-amino-7-(2-furyl)-1-hydroxy-3,4-dihydroquinolin-2(1H)-one, trifluoroacetate salt] was 101 nM; that for `NC1Cc2ccc(-c3cccc(Cl)c3)cc2N(O)C1=O` (centres unmarked) [Example 52, 3-amino-7-(3-chlorophenyl)-1-hydroxy-3,4-dihydroquinolin-2(1H)-one, trifluoroacetate salt] was 139 nM. Still for that read-out and setting: under `NC1Cc2ccc(-c3ccc(C(F)(F)F)cc3)cc2N(O)C1=O` (centres unmarked) [Example 53, 3-amino-1-hydroxy-7-[4-(trifluoromethyl)phenyl]-3,4-dihydroquinolin-2(1H)-one, trifluoroacetate salt] stands 206 nM; under `NC1Cc2ccc(-c3cc(Cl)ccc3F)cc2N(O)C1=O` (centres unmarked) [Example 54, 3-amino-7-(5-chloro-2-fluorophenyl)-1-hydroxy-3,4-dihydroquinolin-2(1H)-one, trifluoroacetate salt], 137 nM; under `CC(C)c1ccc(-c2ccc3c(c2)N(O)C(=O)C(N)C3)cc1` (centres unmarked) [Example 55, 3-amino-1-hydroxy-7-(4-isopropylphenyl)-3,4-dihydroquinolin-2(1H)-one, trifluoroacetate salt], 141 nM. For the compound `COc1ccc(-c2ccc3c(c2)N(O)C(=O)C(N)C3)cc1` (centres unmarked) [Example 56, 3-amino-1-hydroxy-7-(4-methoxyphenyl)-3,4-dihydroquinolin-2(1H)-one, trifluoroacetate salt], the concentration for half-maximal inhibition (IC50) (Table 5) came out at 91.1 nM.

Consider `CCOc1ccccc1-c1ccc2c(c1)N(O)C(=O)C(N)C2` (centres unmarked) [Example 57, 3-amino-7-(2-ethoxyphenyl)-1-hydroxy-3,4-dihydroquinolin-2(1H)-one, trifluoroacetate salt], for which, for the setting “Table 5”, the IC50 is 102 nM. The same measure, in the same setting: under `NC1Cc2ccc(-c3cc(Cl)cc(Cl)c3)cc2N(O)C1=O` (centres unmarked) [Example 58, 3-amino-7-(3,5-dichlorophenyl)-1-hydroxy-3,4-dihydroquinolin-2(1H)-one, trifluoroacetate salt] stands 174 nM. For `COc1ccc(F)cc1-c1ccc2c(c1)N(O)C(=O)C(N)C2` (centres unmarked) [Example 59, 3-amino-7-(5-fluoro-2-methoxyphenyl)-1-hydroxy-3,4-dihydroquinolin-2(1H)-one, trifluoroacetate salt], the IC50 (Table 5) is 156 nM. For the compound `CC(C)Oc1ccc(-c2ccc3c(c2)N(O)C(=O)C(N)C3)cc1` (centres unmarked) [Example 60, 3-amino-1-hydroxy-7-(4-isopropoxyphenyl)-3,4-dihydroquinolin-2(1H)-one, trifluoroacetate salt], the half-inhibitory concentration (IC50) (Table 5) worked out at 161 nM. As for `NC1Cc2ccc(-c3ccc(OC(F)(F)F)cc3)cc2N(O)C1=O` (centres unmarked) [Example 61, 3-amino-1-hydroxy-7-[4-(trifluoromethoxy)phenyl]-3,4-dihydroquinolin-2(1H)-one, trifluoroacetate salt], the 50% inhibitory concentration (IC50) (Table 5) came to 162 nM. On the same count and under the same terms, under `N#Cc1ccccc1-c1ccc2c(c1)N(O)C(=O)C(N)C2` (centres unmarked) [Example 62, 2-(3-amino-1-hydroxy-2-oxo-1,2,3,4-tetrahydroquinolin-7-yl)benzonitrile, trifluoroacetate salt] stands 135 nM; under `Cc1cccc(-c2ccc3c(c2)N(O)C(=O)C(N)C3)c1` (centres unmarked) [Example 63, 3-amino-1-hydroxy-7-(3-methylphenyl)-3,4-dihydroquinolin-2(1H)-one, trifluoroacetate salt], 113 nM; under `COc1ccc(-c2ccc3c(c2)N(O)C(=O)C(N)C3)cc1C` (centres unmarked) [Example 64, 3-amino-1-hydroxy-7-(4-methoxy-3-methylphenyl)-3,4-dihydroquinolin-2(1H)-one, trifluoroacetate salt], 141 nM. The same measure, in the same setting: under `NC1Cc2ccc(-c3ccc4c(c3)CCO4)cc2N(O)C1=O` (centres unmarked) [Example 65, 3-amino-7-(2,3-dihydro-1-benzofuran-5-yl)-1-hydroxy-3,4-dihydroquinolin-2(1H)-one, trifluoroacetate salt] stands 155 nM. With `N[C@H]1Cc2cc(Oc3ccccc3)cnc2N(O)C1=O` [Example 66, (3S)-3-amino-1-hydroxy-6-phenoxy-3,4-dihydro-1,8-naphthyridin-2(1H)-one], the IC50 (Table 6) is 23.1 nM.

Turning to `N[C@H]1Cc2cc(S(=O)(=O)c3ccccc3)ccc2N(O)C1=O` [Example 67, (3S)-3-amino-1-hydroxy-6-(phenylsulfonyl)-3,4-dihydroquinolin-2(1H)-one, hydrochloride salt], the IC50 (Table 6) was 42.1 nM. As for `N[C@H]1Cc2cc(Cc3ccccc3)ccc2N(O)C1=O` [Example 68, (3S)-3-amino-6-benzyl-1-hydroxy-3,4-dihydroquinolin-2(1H)-one, trifluoroacetic acid salt], the IC50 (Table 6) was 42.7 nM. Still for that read-out and setting: under `NC1Cc2cc(Oc3ccccc3Cl)ccc2N(O)C1=O` (centres unmarked) [Example 69, 3-amino-6-(2-chlorophenoxy)-1-hydroxy-3,4-dihydroquinolin-2(1H)-one, hydrochloride salt] stands 43.3 nM.
